We go through six compounds from publication PMC8957246, “Synthesis and diverse biological activity profile of triethylammonium isatin-3-hydrazones” (ADMET & DMPK, 2022).

Marks after values point to notes of the source that are not given here. Where only a bound is given, the exact number is not on record here.

In test [1] the test system is activated partial thromboplastin time (intrinsic coagulation pathway). As to the kind of experiment: Anticoagulant activity, clotting test APTT. Further details: species or system human. To be noted: for APTT, % of control: concentration 5×10^–4 g/mL, median (25-75 percentiles); for anticoagulant activity: APTT, p<0.05. Here is the method:
The in vitro experiments were performed using the blood of healthy male donors aged 18-24 years (total 54 donors). The study was approved by the Ethics Committee of Federal State Budgetary Educational Institution of Higher Education at the Bashkir State Medical University of the Ministry of Health of Russian Federation (No.2 dated 17.10.2012). Informed consent was obtained from all participants before blood sampling. The blood was collected from the cubital vein using the system of vacuum blood collection BD Vacutainer® (Becton, Dickinson and Company, USA). A 3.8 % sodium citrate solution in a 9:1 ratio was used as a venous blood stabiliser. The study of the effect on platelet aggregation was performed using the Born method using the aggregometer «AT-02» (SPC Medtech, Russia). The assessment of antiplatelet activity of the studied compounds and reference preparations was started with the final concentration of 2×10^–3 mol/L. Adenosine diphosphate (ADP; 20 μg/mL) and collagen (5 mg/mL) manufactured by Tehnologia-Standart Company, Russia, were used as inducers of aggregation. The study on the anticoagulant activity was performed by standard recognised clotting tests using the optical two-channel automatic analyser of blood coagulation Solar CGL 2110 (CJSC SOLAR, Belarus). The following parameters were studied: activated partial thromboplastin time (APTT), prothrombin time (PT) and fibrinogen concentrations according to the Clauss method. The determination of anticoagulant activity of the studied compounds and reference preparation was performed in a concentration of 5×10^–4 g/mL using the reagents manufactured by Tehnologia-Standart Company (Barnaul, Russia). The results of the study were processed using the statistical package Statistica 10.0 (StatSoft Inc, USA). The Shapiro–Wilk’s test was used to check the normality of actual data distribution. The form of distribution of the data obtained differed from the normal one; therefore, non-parametric methods were used for further analysis. The data were presented as medians and 25 and 75 percentiles. Analysis of variance was conducted using Kruskal–Wallis test. A p value of 0.05 was considered statistically significant.

Test [2] has as its system MRSA-1 and MRSA-2 compared to erythrocytes and hepatocytes. As to the kind of experiment: Selectivity index (HC50 or IC50 / MIC). Further details: species or system Staphylococcus aureus. To be noted: resistant strains MRSA-1 and MRSA-2 compared to erythrocytes and hepatocytes. As to the method:
The selectivity of compounds for microbial cells is an important criterion for assessing the cytotoxic effect. This indicator is characterized by the value of the selectivity index (SI), which for the leading compounds 3b, 3c, and 3d was calculated as the ratio between the HC50 value for erythrocytes (IC50 for eukaryotic cells) and the MIC value for bacterial cells (Fig. 4). […] Its selectivity index was 3–8 times higher than that of compounds 3b and 3c.

Test [3] deals with methicillin-resistant strains of S. aureus (MRSA-2). As to the kind of experiment: Antimicrobial activity, serial dilution (MIC/MBC), MRSA-2. The test is classed as cell-based. The conditions noted are these: Staphylococcus aureus. Here is the method: (§1) The antimicrobial activity of the test compounds was determined by the serial dilution technique in Muller Hinton Broth 2 and in Sabouradu broth for fungi. The cultures used for testing included Gram-positive bacteria: Staphylococcus aureus ATCC 6538P FDA 209P, Bacillus cereus ATCC 10702 NCTC 8035, Enterococcus faecalis ATCC 29212; Gram-negative bacteria: Escherichia coli ATCC 25922, Pseudomonas aeruginosa ATCC 9027, and fungi: Trichophyton mentagrophytes var. gypseum 1773, and Candida albicans ATCC 10231; methicillin-resistant strains of S. aureus (MRSA) was obtained from hospital patients with chronic tonsillitis in the Republican Clinical Hospital (Kazan, Russia). The bacterial load was 3.0 × 10^5 cfu/ml. The fungi load was 2.0 × 10^3 cfu/ml. The results were recorded every 24 h for 5-7 days. Cultures were incubated at 37 °C. The experiment was repeated three times. […] The minimum inhibitory concentration (MIC) was defined as the minimum concentration of a compound that inhibits the growth of the corresponding test microorganism. The growth of bacteria, as well as the absence of the growth due to the bacteriostatic action of compounds, were recorded.
(§2) Synthesized compounds were further evaluated for antimicrobial activity against test microorganisms: Staphylococcus aureus ATCC 209p (Sa), Bacillus cereus ATCC 8035 (Bc), Escherichia coli CDC F-50 (Ec), Enterococcus faecalis (Ef), Pseudomonas aeruginosa ATCC 9027, Aspergillus niger BKMF-1119, Trichophyton mentagrophytes var. gypseum 1773, and Candida albicans 855-653 including methicillin-resistant strains of S. aureus (MRSA 1 and MRSA 2). The minimum inhibitory (MIC) and minimum bactericidal (MBC) concentrations of ammonium salts were determined against these pathogens (Table 1). Due to the lack of activity of compounds 3a-g against Gram-negative bacterial strains and some fungi, the corresponding data are not shown.

The subject of test [4] is methicillin-resistant strains of S. aureus (MRSA-1). As to the kind of experiment: Antimicrobial activity, serial dilution (MIC/MBC), MRSA-1. To be noted: Staphylococcus aureus. The test is classed as cell-based. As to the method: as §1, §2

Broadly, the MBC is the lowest tested concentration that kills the bacteria rather than only halting them. As a reminder, the MIC is the lowest concentration found to suppress growth.

With `CC[N+](CC)(CC)CC(=O)N/N=C1\C(=O)N(Cc2cc(C(C)(C)C)c(O)c(C(C)(C)C)c2)c2c(Br)cc(Cl)cc21` [Compound 3g, 2-(2-(1-(3,5-Di-tert-butyl-4-hydroxybenzyl)-5-chloro-7-bromo-2-oxoindolin-3-ylidene)hydrazinyl)-N,N,N-triethyl-2-oxoethanammonium bromide], in test [1], the “APTT, % of control” value is given as “+8.6 (6.1-10.9) ^*, ^† % of control”.

As for `CC[N+](CC)(CC)CC(=O)N/N=C1\C(=O)N(Cc2cc(C(C)(C)C)c(O)c(C(C)(C)C)c2)c2ccccc21` [Compound 3a, 2-(2-(1-(3,5-Di-tert-butyl-4-hydroxybenzyl)-2-oxoindolin-3-ylidene)hydrazinyl)-N,N,N-triethyl-2-oxoethanammonium bromide], the “APTT, % of control” value in test [1] is recorded as “+5.2 (4.1-7.6) ^*, ^† % of control”.

For `CC[N+](CC)(CC)CC(=O)N/N=C1\C(=O)N(Cc2cc(C(C)(C)C)c(O)c(C(C)(C)C)c2)c2c1ccc(C)c2C` [Compound 3d, 2-(2-(1-(3,5-Di-tert-butyl-4-hydroxybenzyl)-6,7-dimethyl-2-oxoindolin-3-ylidene)hydrazinyl)-N,N,N-triethyl-2-oxoethanammonium bromide], the “selectivity index, times higher than that of compounds 3b and 3c” value in test [2] is given as 3–8 times. Also, in test [3], the MBC was 49.6 µM and the MIC was found to be 6.2 ± 0.5 µM. In test [4], this compound gave an MBC of 12.4 µM and an MIC of 6.2 ± 0.5 µM. Besides, in test [1], the “APTT, % of control” value is given as “+4.8 (3.7-6.9) ^‡ % of control”.

For the compound `CC[N+](CC)(CC)CC(=O)N/N=C1\C(=O)N(Cc2cc(C(C)(C)C)c(O)c(C(C)(C)C)c2)c2ccc([N+](=O)[O-])cc21` [Compound 3f, 2-(2-(1-(3,5-Di-tert-butyl-4-hydroxybenzyl)-5-nitro-2-oxoindolin-3-ylidene)hydrazinyl)-N,N,N-triethyl-2-oxoethanammonium bromide], in test [1], the anticoagulant activity is ≥ 10% and the “APTT, % of control” value is listed as “+10.3 (8.5-12.7) ^*, ^† % of control”.

Take `CC[N+](CC)(CC)CC(=O)N/N=C1\C(=O)N(Cc2cc(C(C)(C)C)c(O)c(C(C)(C)C)c2)c2cccc(Br)c21` [Compound 3e, 2-(2-(1-(3,5-Di-tert-butyl-4-hydroxybenzyl)-4-bromo-2-oxoindolin-3-ylidene)hydrazinyl)-N,N,N-triethyl-2-oxoethanammonium bromide]: the “APTT, % of control” value in test [1] is “+3.2 (2.8-5.4) ^‡ % of control”.

In test [3], `CCc1cccc2c1N(Cc1cc(C(C)(C)C)c(O)c(C(C)(C)C)c1)C(=O)/C2=N\NC(=O)C[N+](CC)(CC)CC` [Compound 3c, 2-(2-(1-(3,5-Di-tert-butyl-4-hydroxybenzyl)-7-ethyl-2-oxoindolin-3-ylidene)hydrazinyl)-N,N,N-triethyl-2-oxoethanammonium bromide] had an MBC of 99.3 µM and an MIC of 24.8 ± 2.2 µM. Further, in test [4], the MBC was 99.3 µM and the MIC was determined as 49.7 ± 3.9 µM. Besides, in test [1], the anticoagulant activity is reported as ≥ 10% and the “APTT, % of control” value is recorded as “+11.2 (7.9-13.1) ^*, ^† % of control”.
